This test concerns the target T1, EBP (Mus musculus, UniProt P70245).
T1 construct: endogenous in cells; host or cells: mouse EpiSC-derived oligodendrocyte progenitor cells (EpiSC5 line)
T1 sequence (P70245 1-230): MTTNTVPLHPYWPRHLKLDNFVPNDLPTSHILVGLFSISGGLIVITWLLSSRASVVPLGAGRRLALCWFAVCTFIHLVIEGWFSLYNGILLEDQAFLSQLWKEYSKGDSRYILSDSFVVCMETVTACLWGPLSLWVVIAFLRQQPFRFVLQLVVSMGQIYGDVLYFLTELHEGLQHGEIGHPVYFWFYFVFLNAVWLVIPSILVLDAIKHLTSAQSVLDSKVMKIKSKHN
Put plainly: GC/MS-based sterol profiling in EpiSC-derived OPCs (EBP inhibition). It is filed as cell-based. The procedure: EpiSC-derived OPCs were plated at one million cells per well in PDL- and laminin-coated six well plates with differentiation media. After 24 hours, cells were dissociated with Accutase, rinsed with saline, and cell pellets were frozen. For sterol analyses, cells were lysed in methanol (Sigma-Aldrich) with agitation for 30 minutes and cell debris removed by centrifugation at 10,000 rpm for 15 min. Cholesterol-d7 standard (25,26,26,26,27,27,27-^2H7-cholesterol, Cambridge Isotope Laboratories) was added before drying under nitrogen stream and derivatization with 55 al of bis(trimethylsilyl)trifluoroacetamide/trimethylchlorosilane to form trimethylsilyl derivatives. Following derivatization at 60° C. for 20 minutes, 1 μl was analyzed by gas chromatography/mass spectrometry using an Agilent 5973 Network Mass Selective Detector equipped with a 6890 gas chromatograph system and a HP-5MS capillary column ([…]). Samples were injected in splitless mode and analyzed using electron impact ionization. Ion fragment peaks were integrated to calculate sterol abundance, and quantitation was relative to cholesterol-d7. The following m/z ion fragments were used to quantitate each metabolite: cholesterol-d7 (465), FF-Mas (482), cholesterol (368), zymostenol (458), zymosterol (456), desmosterol (456, 343), 7-dehydrocholesterol (456, 325), lanosterol (393), lathosterol (458), 14-dehydrozymostenol (456). […] After derivatization, 1 al was analyzed by gas chromatography/mass spectrometry using an Agilent 5973 Network Mass Selective Detector equipped with a 6890 gas chromatograph system and a HP-5MS capillary column ([…]). Samples were analyzed in full scan mode using electron impact ionization; ion fragment peaks were integrated to calculate sterol abundance, and quantitation was relative to cholesterol-d7. The following ion fragments were used to quantitate each metabolite: cholesterol-d7 (465), cholesterol (368)(Sigma Aldrich), zymostenol (458), All standards were obtained from Avanti Polar Lipids unless otherwise indicated. […]

[1] abbreviates: 100 nm, 24 hours, versus DMSO control.

With `CCN(C/C=C\c1ccc(C2CCCCC2)c(Cl)c1)C1CCCCC1` [Cis-N-cyclohexyl-N-ethyl-3-(3-chloro-4-cyclohexylphenyl)prop-2-enylamine], the “zymostenol in mouse OPCs (FIG. 5)” value (10 nM, 30 nM, 100 nM) is “accumulate zymostenol”. Further, under setting [1], the “cholesterol in OPCs (FIG. 1B)” value is “produce lesser amounts of cholesterol” and the “zymostenol in OPCs (FIG. 1B)” value is given as “accumulate zymostenol”.

These data come from patent US10918610B2, “Compounds and methods of promoting myelination” (Case Western Reserve University, priority 2017, dated 2021).
